# Experimental data taken from EP4710949A1, “LYOPHILIZED PREPARATION, LYOPHILIZED SOLUTION, METHODS FOR PRODUCING SAME, AND LIQUID AGENT” (Goryo Chemical, Inc., priority 2023, dated 2024).
# Several values for one entry are separate records, joined by “and”; a condition that tells them apart may be missing. Equal entries are not always repeated.
# What was measured:
# [1] = Dissolution test of Compound A (Test Example 1); format: physicochemical; conditions: 0.03% ps20, pH 7; 0.03 wt% PS20 solution (phosphate buffer)
# Method: (§1) ·Column: Meteoric Core C8, 5 µm, 4.6 mm×150 mm (YMC Co., Ltd.) ·Column temperature: 25°C ·Feeding amount: 1.0 mL/min. ·Wavelength: 254 nm ·Mobile phase A: water/TFA (1,000:1), Mobile phase B: acetonitrile/TFA (1,000:1) ·Feeding of mobile phase Table 1
# 1 Milligram of Compound A and 10 mL of a 6.55 mM phosphate buffer (pH: 7) containing 0 wt% to 0.03 wt% of polysorbate 20 (FUJIFILM Wako Pure Chemical Corporation, hereinafter referred to as "PS20") or an aqueous solution of NaH2PO4 (0.33 mg/mL) containing 0 wt% to 0.03 wt% of PS20 were loaded into a glass vial having a volume of 20 mL, and air inside the vial was purged with nitrogen. The vial was loaded into Aluminum Lamizip, and the vial was shaken overnight. The phosphate buffer was prepared by using NaH2PO4 and Na2HPO4. The mixture was filtered with a PVDF filter (Millex-GV, 0.22 µm, PVDF, 4 mm), and the solution after 10 drops of its initial flow was collected. Thus, solutions having formulations 1 to 8 were obtained. The concentrations of Compound A in the resultant solutions were calculated by the HPLC measurement of the solutions.
# [2] = Reconstitution of lyophilized preparation of Compound A in physiological saline (Test Example 8); format: physicochemical
# Method: as §1
# Physiological saline (physiological salt solution "OTSUKA NORMAL SALINE") was added to a lyophilized preparation produced according to the same formulation as the formulation 32 except the concentration of Compound A in the lyophilization solution, and the preparation was dissolved in the saline so that a liquid amount was 5 mL. Thus, a reconstituted solution (liquid preparation) of Compound A was obtained. The concentration of Compound A in the reconstituted solution was calculated by HPLC measurement, and the content of Compound A was calculated. […]
structure (smiles),measurement,setting,value
COCC(=O)N[C@@H](CC(C)C)C(=O)N[C@@H](CCSC)C(=O)Nc1ccc2c(c1)Oc1cc(N)ccc1C21OCc2ccccc21 (some centres unmarked) [Compound A],solubility,[1],12.4 µg/mL
same,measured value of the concentration of Compound A,[2]; lyophilization solution used in the production of the lyophilized preparation (same formulation as formulation 32 except Compound A concentration),149.2 µg/mL
same,appearance of the reconstituted solution,"[2]; lyophilized preparation dissolved in physiological saline, 5 mL",clear and free of visible particles
same,Final concentration of Compound A,"[2]; reconstituted solution, 5 mL physiological saline, lyophilized preparation as formulation 32 except Compound A concentration",29.9 µg/mL and 47.2 µM
same,Content of Compound A (%),"[2]; reconstituted solution, 5 mL physiological saline, ratio to content in lyophilization solution",100.1%
